Measured values as given in publication PMC11172375, “Preclinical Evaluation of Biodistribution and Toxicity of [^211At]PSMA-5 in Mice and Primates for the Targeted Alpha Therapy against Prostate Cancer” (International Journal of Molecular Sciences, 2024).

Experiment: Blood chemistry examination in mice
Type: in vivo, ICR mice
Method: [^211At]PSMA-5 was administered intravenously to 25 mice, and its biodistribution was evaluated. For the toxicity study, three doses of [^211At]PSMA-5 (5, 12, and 35 MBq/kg, single dose) or saline were intravenously administered to 10 mice/group for the main evaluation point on day 1, and 5-mice/group for recovery evaluation on day 14, adhering to the ICH M3 (R2) guidelines. The dosage was determined based on our previous study using [^211At]NaAt. The monkeys were monitored for 24 h post-administration of [^211At]PSMA-5 (9 MBq/kg).
A blood cell counter was used for the measurements (CB-1010; ARKRAY, Inc., Kyoto, Japan). Red blood cell count (RBC), hemoglobin concentration (Hb), hematocrit (Ht), white blood cell count (WBC), platelet count (platelet), lymphocytes (%Lymph), monocytes (%Mon), and granulocytes (%Gra) were calculated. Plasma was analyzed using a dry clinical chemistry analyzer (Spotchem D-00 QR D-02; ARKRAY, Inc., Kyoto, Japan). The levels of aspartate aminotransferase (AST), alanine aminotransferase (ALT), gamma-glutamyl transpeptidase (γ-GTP), lactate dehydrogenase (LDH), alkaline phosphatase (ALP), creatine kinase (CK), amylase (AMY), total bilirubin (TBIL), creatinine (CRE), urea nitrogen (BUN), glucose (GLU), total protein (TP), albumin (ALB), total cholesterol (TCHO), triglyceride (TG), and electrolytes (Na, K, and Cl) were measured.

O=C(O)CC[C@H](NC(=O)N[C@@H](CCCCNC(=O)[C@@H](Cc1ccc2ccccc2c1)NC(=O)c1ccc(CNC(=O)[C@@H](CCC(=O)O)NC(=O)[C@@H](CCC(=O)O)NC(=O)Cc2ccc([211At])cc2)cc1)C(=O)O)C(=O)O [[^211At]PSMA-5]
ALB (5 MBq/kg i.v., day 1): 2.3 ± 0.2 g/dL
ALP (5 MBq/kg i.v., day 1): 194 ± 86 IU/L
ALT (5 MBq/kg i.v., day 1): 41.2 ± 31.6 IU/L
AMY (5 MBq/kg i.v., day 1): 2675 ± 562 IU/L
AST (5 MBq/kg i.v., day 1): 43.8 ± 30.3 IU/L
BUN (5 MBq/kg i.v., day 1): 22 ± 8.3 mg/dL
CK (5 MBq/kg i.v., day 1): 180 ± 60 IU/L
CRE (5 MBq/kg i.v., day 1): 0.2 ± 0 mg/dL
GLU (5 MBq/kg i.v., day 1): 198 ± 70 mg/dL
K (5 MBq/kg i.v., day 1): 4.5 ± 0.5 mEq/L
LDH (5 MBq/kg i.v., day 1): 641 ± 281 IU/L
Na (5 MBq/kg i.v., day 1): 141 ± 2.5 mEq/L
TBIL (5 MBq/kg i.v., day 1): 0.6 ± 0.22 mg/dL
TCHO (5 MBq/kg i.v., day 1): 130 ± 20 mg/dL
TG (5 MBq/kg i.v., day 1): 112 ± 75 mg/dL
TP (5 MBq/kg i.v., day 1): 4.1 ± 0.4 g/dL
γ-GTP (5 MBq/kg i.v., day 1): 10 ± 0 IU/L
ALB (5 MBq/kg i.v., day 14): 2.2 ± 0.1 g/dL
ALP (5 MBq/kg i.v., day 14): 171 ± 36 IU/L
ALT (5 MBq/kg i.v., day 14): 16.5 ± 4.9 IU/L
AMY (5 MBq/kg i.v., day 14): 2200 ± 428 IU/L
AST (5 MBq/kg i.v., day 14): 45 ± 22.7 IU/L
BUN (5 MBq/kg i.v., day 14): 27.6 ± 1.1 mg/dL
CK (5 MBq/kg i.v., day 14): 162 ± 91 IU/L
CRE (5 MBq/kg i.v., day 14): 0.2 ± 0 mg/dL
GLU (5 MBq/kg i.v., day 14): 146 ± 39 mg/dL
K (5 MBq/kg i.v., day 14): 5.1 ± 1.2 mEq/L
LDH (5 MBq/kg i.v., day 14): 611 ± 24 IU/L
Na (5 MBq/kg i.v., day 14): 143 ± 1.9 mEq/L
TBIL (5 MBq/kg i.v., day 14): 0.88 ± 0.16 mg/dL
TCHO (5 MBq/kg i.v., day 14): 151 ± 18 mg/dL
TG (5 MBq/kg i.v., day 14): 75 ± 17 mg/dL
TP (5 MBq/kg i.v., day 14): 4.1 ± 0.5 g/dL
γ-GTP (5 MBq/kg i.v., day 14): 10 ± 0 IU/L
ALB (12 MBq/kg i.v., day 1): 2.3 ± 0.2 g/dL
ALP (12 MBq/kg i.v., day 1): 193 ± 100 IU/L
ALT (12 MBq/kg i.v., day 1): 29.0 ± 5.8 IU/L
AMY (12 MBq/kg i.v., day 1): 2666 ± 537 IU/L
AST (12 MBq/kg i.v., day 1): 37 ± 11.5 IU/L
BUN (12 MBq/kg i.v., day 1): 20.7 ± 8.3 mg/dL
CK (12 MBq/kg i.v., day 1): 192 ± 50 IU/L
CRE (12 MBq/kg i.v., day 1): 0.2 ± 0 mg/dL
GLU (12 MBq/kg i.v., day 1): 185 ± 42 mg/dL
K (12 MBq/kg i.v., day 1): 4.5 ± 0.3 mEq/L
LDH (12 MBq/kg i.v., day 1): 736 ± 363 IU/L
Na (12 MBq/kg i.v., day 1): 142 ± 2.0 mEq/L
TBIL (12 MBq/kg i.v., day 1): 0.53 ± 0.16 mg/dL
TCHO (12 MBq/kg i.v., day 1): 128 ± 20 mg/dL
TG (12 MBq/kg i.v., day 1): 119 ± 75 mg/dL
TP (12 MBq/kg i.v., day 1): 4.1 ± 0.3 g/dL
γ-GTP (12 MBq/kg i.v., day 1): 10 ± 0 IU/L
ALB (12 MBq/kg i.v., day 14): 2.1 ± 0.3 g/dL
ALP (12 MBq/kg i.v., day 14): 110 ± 59 IU/L
ALT (12 MBq/kg i.v., day 14): 21.5 ± 0.7 IU/L
AMY (12 MBq/kg i.v., day 14): 2514 ± 549 IU/L
AST (12 MBq/kg i.v., day 14): 28.8 ± 15.4 IU/L
BUN (12 MBq/kg i.v., day 14): 30.6 ± 6.1 mg/dL
CK (12 MBq/kg i.v., day 14): 144 ± 26 IU/L
CRE (12 MBq/kg i.v., day 14): 0.22 ± 0.04 mg/dL
GLU (12 MBq/kg i.v., day 14): 148 ± 24 mg/dL
K (12 MBq/kg i.v., day 14): 5.4 ± 0.8 mEq/L
LDH (12 MBq/kg i.v., day 14): 456 ± 72 IU/L
Na (12 MBq/kg i.v., day 14): 143 ± 2.8 mEq/L
TBIL (12 MBq/kg i.v., day 14): 0.68 ± 0.13 mg/dL
TCHO (12 MBq/kg i.v., day 14): 138 ± 20 mg/dL
TG (12 MBq/kg i.v., day 14): 87 ± 42 mg/dL
TP (12 MBq/kg i.v., day 14): 3.9 ± 0.4 g/dL
γ-GTP (12 MBq/kg i.v., day 14): 10 ± 0 IU/L
ALB (35 MBq/kg i.v., day 1): 2.2 ± 0.1 g/dL
ALP (35 MBq/kg i.v., day 1): 208 ± 67 IU/L
ALT (35 MBq/kg i.v., day 1): 53.0 ± 10.3 IU/L
AMY (35 MBq/kg i.v., day 1): 2795 ± 363 IU/L
BUN (35 MBq/kg i.v., day 1): 19.6 ± 6.2 mg/dL
CK (35 MBq/kg i.v., day 1): 170 ± 65 IU/L
CRE (35 MBq/kg i.v., day 1): 0.2 ± 0 mg/dL
GLU (35 MBq/kg i.v., day 1): 201 ± 31 mg/dL
K (35 MBq/kg i.v., day 1): 5.1 ± 0.5 mEq/L
LDH (35 MBq/kg i.v., day 1): 638 ± 385 IU/L
Na (35 MBq/kg i.v., day 1): 140 ± 1.4 mEq/L
TBIL (35 MBq/kg i.v., day 1): 0.71 ± 0.48 mg/dL
TCHO (35 MBq/kg i.v., day 1): 129 ± 21 mg/dL
TG (35 MBq/kg i.v., day 1): 122 ± 79 mg/dL
TP (35 MBq/kg i.v., day 1): 4.0 ± 0.3 g/dL
γ-GTP (35 MBq/kg i.v., day 1): 10 ± 0 IU/L
AST (35 MBq/kg i.v., day 1, hemolysis was observed): 51.5 ± 36.2 IU/L
ALB (35 MBq/kg i.v., day 14): 2.3 ± 0.1 g/dL
ALP (35 MBq/kg i.v., day 14): 133 ± 46 IU/L
ALT (35 MBq/kg i.v., day 14): 13.0 ± 0.0 IU/L
AMY (35 MBq/kg i.v., day 14): 2678 ± 388 IU/L
AST (35 MBq/kg i.v., day 14): 28.4 ± 9.9 IU/L
BUN (35 MBq/kg i.v., day 14): 23.4 ± 3.4 mg/dL
CK (35 MBq/kg i.v., day 14): 141 ± 18 IU/L
CRE (35 MBq/kg i.v., day 14): 0.2 ± 0 mg/dL
GLU (35 MBq/kg i.v., day 14): 141 ± 21 mg/dL
K (35 MBq/kg i.v., day 14): 4.7 ± 0.6 mEq/L
LDH (35 MBq/kg i.v., day 14): 538 ± 129 IU/L
Na (35 MBq/kg i.v., day 14): 143 ± 2.6 mEq/L
TBIL (35 MBq/kg i.v., day 14): 0.68 ± 0.33 mg/dL
TCHO (35 MBq/kg i.v., day 14): 144 ± 15 mg/dL
TG (35 MBq/kg i.v., day 14): 67 ± 18 mg/dL
TP (35 MBq/kg i.v., day 14): 4.1 ± 0.2 g/dL
γ-GTP (35 MBq/kg i.v., day 14): 10 ± 0 IU/L
